Data reported in patent US11219602B2 (VECTURA LIMITED, priority 2017, dated 2022).
“And” between values parts separate entries of the source, which are not always exact repeats. Equal entries are not always repeated.

Experiment: Particle size analysis (wet analysis), Malvern Mastersizer 3000
Assay type: physicochemical
Conditions: starting material before micronisation
Experimental: The pump speed was set to 3000 rpm. […] The dispersed particles were added to the dispersion unit to reach an obscuration of 5-15%. […] Six replicates were performed per measurement.

[1] = listed as unmicronised glycopyrrolate

## C[N+]1(C)CCC(OC(=O)C(O)(c2ccccc2)C2CCCC2)C1 (stereo not drawn) [Unmicronised glycopyrrolate, glycopyrrolate]
  D10: 2.89 μm
  D50: 16.0 μm
  D90: 49.0 μm
[1]
  D10: 1.09 μm
  D50: 2.90 μm
  D90: 10.4 μm

## magnesium stearate
  D10: 2.8 μm and 2.06 μm
  D50: 8.8 μm and 6.57 μm
  D90: 27.4 μm and 19.9 μm
